Results as given in the supplement of paper PMC10307832.

Assays:
Assay in all cases: relative viability (nuclei count vs DMSO), 5 days (fraction); higher = more cells survive
[1] = test system: NCI-H1793
Summary of the method: (§1)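 Relative viability was taken as the ratio of nuclei in treated wells to nuclei in vehicle wells. Lung cancer cell lines in 1536-well plates received compounds by pin tool one day after seeding, either one drug alone or a fixed anchor-drug dose plus five library-drug doses (not always all listed) in √10 steps. Nuclei were counted on 4× images after 5 days of treatment, and values are medians of duplicate plates.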

[2] = test system: SW 900
Summary of the method: as §1

[3] = test system: NCI-H727
Summary of the method: as §1

[4] = test system: NCI-H23
Summary of the method: as §1

[5] = test system: NCI-H2347
Summary of the method: as §1

[6] = test system: LC-2-ad
Summary of the method: as §1

[7] = test system: 201T
Summary of the method: as §1

[8] = test system: SW 1573
Summary of the method: as §1

[9] = test system: NCI-H1563
Summary of the method: as §1

[10] = test system: LCLC-103H
Summary of the method: as §1

[11] = test system: PC-3 [JPC-3]
Summary of the method: as §1

[12] = test system: NCI-H2228
Summary of the method: as §1

[13] = test system: NCI-H596
Summary of the method: as §1

[14] = test system: LU99A
Summary of the method: as §1

[15] = test system: COR-L23
Summary of the method: as §1

[16] = test system: H3255
Summary of the method: as §1

[17] = test system: NCI-H1650
Summary of the method: as §1

[18] = test system: NCI-H460
Summary of the method: as §1

[19] = test system: PC-14
Summary of the method: as §1

[20] = test system: LCLC-97TM1
Summary of the method: as §1

[21] = test system: A-427
Summary of the method: as §1

[22] = test system: LK-2
Summary of the method: as §1

O=c1cc(-c2cccc3c2Sc2ccccc2S3)oc(N2CCOCC2)c1 + COc1cc2c(Oc3ccc(NC(=O)C4(C(=O)Nc5ccc(F)cc5)CC4)cc3F)ccnc2cc1OCCCN1CCOCC1 [Foretinib] (partner 0.25 µM)
relative viability ([1]; first compound 0.08 µM): 0.681 | relative viability ([1]; first compound 0.253 µM): 0.826 | relative viability ([1]; first compound 0.8 µM): 0.562 | relative viability ([1]; first compound 2.53 µM): 0.595 | relative viability ([1]; first compound 8 µM): 0.588 | relative viability ([2]; first compound 0.08 µM): 0.772 | relative viability ([2]; first compound 0.253 µM): 1.27 | relative viability ([2]; first compound 0.8 µM): 1.05 | relative viability ([2]; first compound 2.53 µM): 0.723 | relative viability ([2]; first compound 8 µM): 0.648 | relative viability ([3]; first compound 0.08 µM): 0.552 | relative viability ([3]; first compound 0.253 µM): 0.867 | relative viability ([3]; first compound 0.8 µM): 0.904 | relative viability ([3]; first compound 2.53 µM): 0.842 | relative viability ([3]; first compound 8 µM): 1.21 | relative viability ([4]; first compound 0.08 µM): 0.96 | relative viability ([4]; first compound 0.253 µM): 1.14 | relative viability ([4]; first compound 0.8 µM): 0.906 | relative viability ([4]; first compound 2.53 µM): 0.886 | relative viability ([4]; first compound 8 µM): 0.898 | relative viability ([5]; first compound 0.08 µM): 0.903 | relative viability ([5]; first compound 0.253 µM): 0.841 | relative viability ([5]; first compound 0.8 µM): 0.682 | relative viability ([5]; first compound 2.53 µM): 0.679 | relative viability ([5]; first compound 8 µM): 0.892 | relative viability ([6]; first compound 0.08 µM): 0.888 | relative viability ([6]; first compound 0.253 µM): 0.97 | relative viability ([6]; first compound 0.8 µM): 0.94 | relative viability ([6]; first compound 2.53 µM): 0.875 | relative viability ([6]; first compound 8 µM): 0.873 | relative viability ([7]; first compound 0.08 µM): 1.14 | relative viability ([7]; first compound 0.253 µM): 1.08 | relative viability ([7]; first compound 0.8 µM): 0.787 | relative viability ([7]; first compound 2.53 µM): 1.06 | relative viability ([7]; first compound 8 µM): 1.01 | relative viability ([8]; first compound 0.08 µM): 0.8 | relative viability ([8]; first compound 0.253 µM): 0.916 | relative viability ([8]; first compound 0.8 µM): 0.783 | relative viability ([8]; first compound 2.53 µM): 0.989 | relative viability ([8]; first compound 8 µM): 1 | relative viability ([9]; first compound 0.08 µM): 0.922 | relative viability ([9]; first compound 0.253 µM): 0.895 | relative viability ([9]; first compound 0.8 µM): 0.868 | relative viability ([9]; first compound 2.53 µM): 0.89 | relative viability ([9]; first compound 8 µM): 0.91 | relative viability ([10]; first compound 0.08 µM): 0.721 | relative viability ([10]; first compound 0.253 µM): 0.831 | relative viability ([10]; first compound 0.8 µM): 0.794 | relative viability ([10]; first compound 2.53 µM): 0.71 | relative viability ([10]; first compound 8 µM): 0.712 | relative viability ([11]; first compound 0.08 µM): 1.06 | relative viability ([11]; first compound 0.253 µM): 1.08 | relative viability ([11]; first compound 0.8 µM): 1.16 | relative viability ([11]; first compound 2.53 µM): 1.01 | relative viability ([11]; first compound 8 µM): 1.2 | relative viability ([12]; first compound 0.08 µM): 0.753 | relative viability ([12]; first compound 0.253 µM): 0.907 | relative viability ([12]; first compound 0.8 µM): 0.966 | relative viability ([12]; first compound 2.53 µM): 0.813 | relative viability ([12]; first compound 8 µM): 1.11 | relative viability ([13]; first compound 0.08 µM): 0.783 | relative viability ([13]; first compound 0.253 µM): 0.907 | relative viability ([13]; first compound 0.8 µM): 0.969 | relative viability ([13]; first compound 2.53 µM): 0.789 | relative viability ([13]; first compound 8 µM): 0.848 | relative viability ([14]; first compound 0.08 µM): 0.825 | relative viability ([14]; first compound 0.253 µM): 0.841 | relative viability ([14]; first compound 0.8 µM): 1.04 | relative viability ([14]; first compound 2.53 µM): 0.829 | relative viability ([14]; first compound 8 µM): 1.13 | relative viability ([15]; first compound 0.08 µM): 0.946 | relative viability ([15]; first compound 0.253 µM): 1.11 | relative viability ([15]; first compound 0.8 µM): 1.1 | relative viability ([15]; first compound 2.53 µM): 0.971 | relative viability ([15]; first compound 8 µM): 1.17 | relative viability ([16]; first compound 0.08 µM): 0.758 | relative viability ([16]; first compound 0.253 µM): 0.821 | relative viability ([16]; first compound 0.8 µM): 0.87 | relative viability ([16]; first compound 2.53 µM): 0.738 | relative viability ([16]; first compound 8 µM): 0.925 | relative viability ([17]; first compound 0.08 µM): 1.35 | relative viability ([17]; first compound 0.253 µM): 1.04 | relative viability ([17]; first compound 0.8 µM): 0.998 | relative viability ([17]; first compound 2.53 µM): 0.902 | relative viability ([17]; first compound 8 µM): 1.19 | relative viability ([18]; first compound 0.08 µM): 1.04 | relative viability ([18]; first compound 0.253 µM): 1.01 | relative viability ([18]; first compound 0.8 µM): 0.963 | relative viability ([18]; first compound 2.53 µM): 1.02 | relative viability ([18]; first compound 8 µM): 1.13 | relative viability ([19]; first compound 0.08 µM): 0.95 | relative viability ([19]; first compound 0.253 µM): 1.29 | relative viability ([19]; first compound 0.8 µM): 0.924 | relative viability ([19]; first compound 2.53 µM): 0.961 | relative viability ([19]; first compound 8 µM): 0.966 | relative viability ([20]; first compound 0.08 µM): 0.961 | relative viability ([20]; first compound 0.253 µM): 1.02 | relative viability ([20]; first compound 0.8 µM): 0.977 | relative viability ([20]; first compound 2.53 µM): 0.887 | relative viability ([20]; first compound 8 µM): 0.909 | relative viability ([21]; first compound 0.08 µM): 1.05 | relative viability ([21]; first compound 0.253 µM): 1 | relative viability ([21]; first compound 0.8 µM): 1.06 | relative viability ([21]; first compound 8 µM): 1.11 | relative viability ([22]; first compound 0.08 µM): 0.933 | relative viability ([22]; first compound 0.253 µM): 1.24 | relative viability ([22]; first compound 0.8 µM): 1.23 | relative viability ([22]; first compound 2.53 µM): 0.997 | relative viability ([22]; first compound 8 µM): 1.25
